Laboratory results as given in patent US20090036380A1, “Composition And Method For Brain Tumor Therapy” (Yeda Research and Development Co., Ltd., priority 2006, published 2009).
Entries after “also recorded” stand apart in the source; their conditions may differ.

Tests used:
[1] = system: PC12 cells; assay: Viability / death of PC12 cells after transfection with Karet constructs (Live/dead kit, FACS, cell counting, Hoechst); format: cell-based, rat; conditions: for cell viability / death versus control vector: PC12, 18 hours after transfection, dead/live kit and FACS
Procedure: FIG. 5a is a bar-graph of FACS data depicting 50 percent death of PC12 cells overexpressing Karet. Shown is a FACS analysis of PC12 viability 15 hours after transfection with Ha-Karet or control vector using Live/dead kit (Molecular probes), T-test=0.003.
FIG. 5b is a series of fluorescence photomicrographs depicting death of PC12 cells caused by Karet overexpression. Shown is a live/dead kit analysis of PC12 cells overexpressing Ha-Karet (left panels) versus control vector-transfected cells (right panels). Live cell are stained in green, dead cells are stained in red. Upper panels each show red fluorescence only (left picture) and green fluorescence only (right picture) pairs, and lower panels each show combined red and green fluorescence (left picture) and light microscopy images (right picture) pairs.
FIG. 5d is a pair of Hoechst stain histology photomicrographs depicting condensation of chromatin indicating apoptosis in PC12 cells expressing Karet, but not in control cells transfected with vector only.
FIG. 5e is a histogram depicting that Karet expression induces cell death of TrkA expressing cells, which is increased by NGF treatment and is decreased by necdin. PC12 or PC12 necdin stable cell line were electroporated with Karet or GFP control and incubated with or without 50 ng/ml NGF for 12 hours. Cells were counted and result presented as percent of control.
PC12 cells were transfected with Ha Karet, PTB, non PTB and their combinations. Cells were analyzed by FACS 18 hours after transfection using the dead/live kit. N=3; * p<0.05; **p<0.001;
The lower panel is a histogram depicting that Karet-mediated cell death correlates well with expression levels of the Karet protein. PC12 Tet-on cells were electroporated with Ha-Karet cloned under inducible promoter and incubated for 24 hours with different concentrations of doxycycline. Cells transfected with Karet but not treated with doxycycline served as control. Cells were counted and the results were determined as percent of control. The upper panel is a control Western blot depicting increased Karet expression with increased concentrations of doxycycline. Cells transfected with Karet and treated with doxycycline were lysed in NP-40 buffer and subjected to SDS-PAGE analysis. Similar amount of protein was loaded and blotted for Karet expression with Ha antibody. Proteins levels were checked with anti-tubulin antibody.
FIG. 18a—PC12 were transfected with Ha Karet, Karet F217V, PTB F217V or a control vector (pcDNA3) and 18 hours after transfection the effect of Karet or Karet mutants on cell death was determined using the dead/live kit and FACS analysis. Results are presented in percentages as compared to cells transfected with the control vector. N=3 **P<0.001. […] FIG. 18b—Cells were lysed 24 hours after transfection, fractionated on SDS-PAGE and immunoblot for anti Ha (Covance).
FIG. 19 is a histogram depicting FACS analysis of Karet-induced death. PC12 cells were co-transfected with Karet and the PTB, non-PTB or the F217V mutant at different ratios (1:1, 1:2, 1:3) and 18 hours after transfection the cells were analyzed by FACS using the dead/live kit.
Viability of cells was evaluated using the Live/dead viability/cytotoxicity kit (Cat. No. L-3224), Molecular Probes, Inc., Eugene, Oreg., USA, according to manufacturer's instructions.

[2] = system: TrkA; assay: Co-immunoprecipitation of HA-Karet constructs with TrkA; format: binding; conditions: co-transfected Hek or NNR5 cells, anti-HA IP
Procedure: FIG. 3c is a co-immunoprecipitation assay depicting co-immunoprecipitation of HA-Karet with TrkA in COS cells. Karet tagged with the HA epitope was immunoprecipitated with anti-HA antibody and the blot was incubated with anti-TrkA (RTA). In control experiments the HA-Karet was substituted with vector.
FIG. 3d is a co-immunoprecipitation assay depicting interaction of Karet and TrkA in NNR5 cells transfected with TrkA.
FIG. 3e is a co-immunoprecipitation assay depicting co-immunoprecipitation of HA-Karet with TricA in co-transfected NNR5 cells immunoprecipitated with anti-HA (Roche) and Western blot with the anti-TrkA antibody C14 (Santa Cruz).
FIGS. 4a-c are co-immunoprecipitation assay results depicting the influence of NGF treatment on TrkA-Karet interaction. FIG. 4a depicts that TrkA-Karet interaction occurred prior to NGF treatment and was enhanced after ligand stimulation for 10 minutes (10 m) or 2 hours (2 h). HA-Karet was electroporated into cell line PC12, and the cells were treated with 50 ng/ml NGF for the indicated time periods in order to activate p75 and TrkA. Karet tagged with the HA epitope was immunoprecipitated with anti-HA antibody, the precipitated proteins were separated electrophoretically, and gel blots were incubated with anti-TrkA antibody (RTA). FIG. 4b depicts that necdin seems to compete with TrkA for binding to Karet. myc-Karet was electroporated into necdin stable cell line, and the cells were treated with 50 ng/ml NGF for the indicated time periods. Karet tagged with the myc epitope was immunoprecipitated with anti-myc antibody, the precipitated proteins were separated electrophoretically, and gel blots were incubated with anti-TrkA antibody (RTA). […] A blot from the same experiment was stripped and re-incubated with anti-necdin antibody. The arrow indicates the glycosylated form of TrkA (molecular weight of 140 kDa).
FIG. 7b is an immunoprecipitation assay depicting that the PTB domain-containing Karet(1-228) mutant, but not Karet(228-453) co-immunoprecipitates with TrkA in NNR5 cells. Truncation mutants tagged with the HA epitope were immunoprecipitated with anti-HA antibody, the precipitated proteins were separated electrophoretically, and gel blots were incubated with anti-TrkA (RTA).
FIGS. 24a-d depict co IP of Ha Karet with TrkA, TrkB, TrkC, p75 from co-transfected Hek cells. Cells were co-transfected with Ha Karet or control vector and TrkA, TrkB, TrkC or p75. Cells were lysed with NP40, the HA-beads (beads conjugated to anti-HA antibody) were blocked with Hek lysate, and elution was done for 30 minutes at 37° C. […]

Substance | cell viability / death versus control vector [1] | effect on Karet-induced death in competition assay ([1]; PC12 co-transfected with Karet at ratios 1:1, 1:2, 1:3, FACS 18 hours after transfection) | co-immunoprecipitation / interaction with TrkA [2] | cell death versus Karet expression level ([1]; PC12 Tet-on cells, 24 hours, different concentrations of doxycycline) | Hoechst staining ([1]; PC12 cells expressing Karet versus control-transfected cells)
Karet F217V: full-length mouse Karet with phenyl alanine at position 217 point mutated to valine | do not cause death; also recorded: does not induce cell death | reduced Karet-induced death | co-immunoprecipitated | – | –
Karet: full-length mouse Karet protein (SEQ ID NO:1), PTB domain protein, expressed from pcDNA3 with HA tag | significant reduction in the viability | – | co-immunoprecipitated | well correlated with expression levels of the Karet protein | condensed chromatin indicating apoptotic death
